Assay results published in patent publication US20240115729A1, “COMPOSITIONS AND METHODS FOR TARGETED ANTIFIBROTIC THERAPY IN CHRONIC PANCREATITIS” (University of Virginia Patent Foundation, priority 2021, published 2024).
Several values for one entry are separate records, joined by “and”; a condition that tells them apart may be missing. Equal entries are not always repeated.

Assays:
[1] = system: collagen IIIa+ cells (ECM); assay: Immunofluorescence colocalization (MCC) of VT680-labeled phage with cell marker in CP pancreas; format: in vivo, mouse; conditions: Col IIIa; CP pancreas sections
From the text: (§1) Immunofluorescence (IF). Post ex vivo imaging, mouse pancreata were submerged in Neg-50 Frozen Section Medium (Thermo Scientific, Waltham, Massachusetts, United States of America) and snap-frozen over liquid nitrogen vapor. The embedded tissues were cut into 5 μm sections using a cryostat (Leica Microsystems Inc., Buffalo Grove, Illinois, United States of America) for subsequent imaging with ZEISS LSM-880 Confocal Laser Scanning Microscope (Carl Zeiss Meditec, Inc., Jena, Germany) at the Advanced Microscopy Facility at the University of Virginia. Cell types of interest in the pancreatitis microenvironment were identified by immunohistochemistry using the following antibodies: rat anti-mouse CD31 at 1:200 dilution (endothelial markers; BD Biosciences, San Jose, California, United States of America), rat anti-mouse CD206 at 1:1000 dilution (M2 macrophage markers; Bio-Rad, Hercules, California, United States of America), rabbit anti-mouse cytokeratin 7 at 1:3000 dilution (CK-7, epithelial markers; Abcam, Cambridge, Massachusetts, United States of America), rabbit anti-mouse collagen IIIa at 1:200 dilution (ECM markers; Abcam, Cambridge, Massachusetts, United States of America), goat anti-mouse carboxypeptidase A1 at 1:200 dilution (CPA1, acini markers; R&D Systems, Inc., Minneapolis, Minnesota, United States of America), rat anti-mouse F4/80 at 1:500 (macrophage markers; Bio-Rad, Hercules, California, United States of America), and FITC-conjugated, mouse anti-mouse α-SMA at 1:200 dilution (MilliporeSigma, St. Louis, Missouri, United States of America). ALEXA FLUOR® 488 (Abcam, Cambridge, Massachusetts, United States of America) antibodies from appropriate species, including donkey anti-goat, donkey anti-rat, donkey anti-rabbit at 1:500 dilution, were used as secondary antibodies to locate the primary antibodies. IF-stained pancreatic sections were mounted with PROLONG™ Gold Antifade Mountant with DAPI (Thermo Fisher Scientific Inc, Waltham, Massachusetts, United States of America, United States of America) for nucleus visualization. IF images were taken on Ziess LSM 880 Confocal Microscope (ZIESS, Oberkochen, Germany) at the Advanced Microscopy Facility at the University of Virginia.
(§2) To identify the cell types that the CP targeting clones were binding, immunofluorescent analysis was performed on common cellular components in the CP microenvironment in the inflamed pancreas sections following in vivo validation of individual clones (FIG. 7). Mander's correlation coefficient (MCC) analysis was performed to determine colocalization of the targeting phage to the cell markers.

CK7 (epithelium) = assay: as above; format: in vivo, mouse; conditions: CP pancreas sections
From the text: as §1, §2

[2] = system: CPA-1+ cells (acinar cells); assay: as above; format: in vivo, mouse; conditions: CP pancreas sections
From the text: as §1, §2

CD31 (endothelium) = assay: as above; format: in vivo, mouse; conditions: CP pancreas sections
From the text: as §1, §2

[3] = system: F4/80+ cells (macrophages); assay: as above; format: in vivo, mouse; conditions: CP pancreas sections
From the text: as §1, §2

[4] = system: αSMA+ cells (activated PSC); assay: as above; format: in vivo, mouse; conditions: CP pancreas sections
From the text: as §1, §2

[5] = system: caerulein-induced CP mice (inflamed pancreas) versus healthy mice; assay: In vivo validation of individual phage clones: ex vivo IVIS fluorescence of organs after co-injection of targeting phage (VT680) and wild type M13Ke phage (VT750); design: species or system mouse (C57BL/6J); conditions: for CP-to-Healthy Ratio (fold change of specificity ratio): Pancreas; for specificity for CP over healthy pancreas: individual clones from Groups 2 and 3
Procedure: C57BL/6 J mice (6-12 week-old, female) were used for the in vivo phage screening. For chronic pancreatitis, caerulein (Bachem, Torrance, California, United States of America) was dissolved in sterile saline and administrated to mice twice a day, 8 hours apart for 14 consecutive days, at a concentration of 250 μg/kg body weight via intraperitoneal injection (Halbrook et al., 2017), as shown in FIG. 1A. During the 14-day course, intraperitoneal injections of 100 μg/kg buprenorphine were given every 3 days to minimize the induced pain. For healthy controls, c57BL/6 J mice were injected intraperitoneally with an equal volume of sterile saline following the same schedule as in the chronic pancreatitis models. […] Picrosirius red (Polysciences, Inc., Warrington, Pennsylvania, United States of America) was used to visualize collagen in paraffin-embedded pancreas sections (FIG. 1B).
Specificity of phage clones. After PHASTpep analysis and candidate clone selections, 18 candidate clones were grouped (4-5 clones per group, 4 groups total) based on sequence similarity using GibbsCluster Server 2.0 (Andreatta et al., 2017). by the Technical University of Denmark (FIG. 2). […] For each group, the fluorescently labeled candidate and WT phage were mixed and co-injected in CP and healthy mice (n=5) Phage accumulation was determined by measuring the ex vivo fluorescent intensity of the pancreas at 20 hours post-injection using the Fluorescent Molecular Tomography (FMT, PerkinElmer, Waltham, Massachusetts, United States of America) using the excitation and emission wavelength at 675 nm/720 nm for VT680 and 745 nm/800 nm for VT750. To account for variations of fluorescent labeling efficiency, the raw readouts of VT680 and VT750 were normalized to the dye-per-phage ratio (see Table 3 below).
The specificity ratio was calculated as % ID/g of the normalized VT680 divided by the % ID/g of the normalized VT750 (see Equation (1)). Quantifications are included in Table 4.
A similar procedure was applied to determine the specificity of individual phage clones in Groups 2 and 3. Candidate clones were labeled with VivioTag 680 (VT680, PerkinElmer, Waltham, MA) to match the detectable wavelength of the IVIS Spectrum Series (Perkin Elmer, Waltham, Massachusetts, United States of America). Fluorescent intensity was measured at 20 hours post-injection of candidate phage (VT680) and WT phage (VT750). Fold change of specificity ratio was calculated as the specificity ratio of CP mice divided by the specificity ratio of the healthy mouse (see Table 5).

[6] = system: cellular components in the CP microenvironment; assay: Cellular selectivity of phage clones: one-way ANOVA and Tukey-Kramer comparison of MCC of all cell markers; format: in vivo, mouse
From the text: as §1
Statistical analysis. Statistical analysis of the data was performed by student t-test, one-way analysis of variance (ANOVA), and Tukey-Kramer test. All data presented are expressed as mean+standard error of at least three independent measurements. For all comparisons, p-values<0.05 were considered significant.
as §2

[7] = statistically significant selectivity for a single cellular component in CP

Substance	Mean Manders' Correlation Coefficient (MCC), fraction of phage overlapping cell marker [1]	Mean Manders' Correlation Coefficient (MCC), fraction of phage overlapping cell marker (CK7 (epithelium))	Mean Manders' Correlation Coefficient (MCC), fraction of phage overlapping cell marker [2]	Mean Manders' Correlation Coefficient (MCC), fraction of phage overlapping cell marker (CD31 (endothelium))	Mean Manders' Correlation Coefficient (MCC), fraction of phage overlapping cell marker [3]	Mean Manders' Correlation Coefficient (MCC), fraction of phage overlapping cell marker [4]	Radiant efficiency Targeting:M13Ke ([5]; CP mouse, liver)	Radiant efficiency Targeting:M13Ke ([5]; CP mouse, pancreas)	Radiant efficiency Targeting:M13Ke ([5]; CP mouse, spleen)	CP-to-Healthy Ratio ([5]; Liver)	CP-to-Healthy Ratio (fold change of specificity ratio) [5]	CP-to-Healthy Ratio ([5]; Spleen)	Radiant efficiency Targeting:M13Ke ([5]; healthy mouse, liver)	Radiant efficiency Targeting:M13Ke ([5]; healthy mouse, pancreas)	Radiant efficiency Targeting:M13Ke ([5]; healthy mouse, spleen)	specificity for CP over healthy pancreas [5]	Cell type the phage clone shows specificity to ([6]; CP microenvironment)	Marker the phage clone shows specificity to ([6]; CP microenvironment)	Colocalized Markers (p < 0.05) [6, 7]	Corresponding Cellular Components [6, 7]
HPYSPLR [7-mer peptide, candidate phage clone from Groups 2 and 3]	0.27	0.08	0.25	0.35	0.41	0.13	0.59	6.42	3.10	0.744	1.544	1.138	0.80	4.16	2.73	increased specificity for CP over healthy pancreas				
HSGLNKQ (displayed on phage) [7-mer peptide, candidate phage clone selected by motif clustering analysis]							0.63	6.07	3.42	1.254	0.611	1.157	0.50	9.93	2.96					
KTYVPTT (displayed on phage)	0.23	0.06	0.26	0.20	0.31	0.521±0.067 and 0.52	0.61	11.90	3.05	1.161	1.362	0.890	0.53	8.74	3.43	increased specificity for CP over healthy pancreas	aPSC	α-SMA^+	α-SMA	aPSC
SANITNL (displayed on phage) [7-mer peptide, candidate phage clone selected by replicability between libraries]							0.74	4.02	4.60	1.287	0.943	1.518	0.58	4.27	3.03					
SLPLGPM (displayed on phage) [7-mer peptide, candidate phage clone from Groups 2 and 3]	0.23	0.06	0.35	0.25	0.49	0.15	0.64	6.42	3.49	0.921	1.286	1.215	0.69	5.00	2.87	increased specificity for CP over healthy pancreas				
